# The source made the active and inactive calls.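 The calls were made as follows: active = falling signal with an AC50 no greater than ten times the top valid dose tested for that sample; inconclusive = flat curve with inhibition of 30 to 70 percent, or poor fit; inactive = activity in the rising direction, and the rest.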
# Molecular target: LuxS (S-ribosylhomocysteine lyase), bacterial
# Experiment: S-ribosylhomocysteine lyase activity inhibition – biochemical, dry powder, set 2, absorbance, dose response (AID 493172)
# Conditions: purified Co-LuxS, DTNB homocysteine absorbance 412 nm
row,AC50,SMILES
1,> 35 µM (inactive),C=Cn1c(C(=O)O)ccc1-c1ccc(CC)cc1

# Same assay, conditions: purified Co-LuxS, DTNB homocysteine absorbance 412 nm; at 35 µM (top of the series)
row,"activity change, negative = inhibition",SMILES
1,inactive,COc1cc(NC(=O)CN2C(=O)NC(c3ccccc3)(c3ccccc3)C2=O)cc(OC)c1
2,inactive,Cn1cnc(S(=O)(=O)Nc2ccc(OC(F)(F)F)cc2)c1
3,inactive,CCc1ccc(S(=O)(=O)Nc2ccc(Br)cn2)cc1
4,inactive,CCc1ccc(C(=O)Nc2ccc(Br)cn2)cc1

# The next lines start with the compound.
row,SMILES,"activity change, negative = inhibition"
1,Cc1cccc(NS(=O)(=O)c2ccc(Oc3ccccc3)cc2)n1,inactive
2,Cc1cccc(NC(=O)c2ccc(Oc3ccccc3)cc2)n1,inactive
